# From patent publication US4461761A, “Oligomers of compounds of the muramyl-peptide type and medicaments containing them” (priority 1978, dated 1984)
# What was measured:
# [1] = tested on: ovalbumin; experiment: Adjuvant character in emulsion: delayed hypersensitivity cutaneous test; type: in vivo, Hartley guinea pigs; conditions: emulsion with 1 mg ovalbumin, intradermal; product 50 μg in FIA; challenge day 18, read 48 hours later
# Experimental: (§1) The tests were carried out on batches of 6 male Hartley guinea pigs of 350 g. The administration was done by intradermal injection into the plantar pad of each of the rear paws. Ovalbumin (constituting the antigen) in the amount of 1 mg is prepared in 0.1 ml of an emulsion of saline isotonic solution, in an oily phase constituted either by the Freund incomplete adjuvant (FIA) or by the complete adjuvant (FCA) formed by the FIA to which is added 0.1 mg of whole Mycobacterium smegmatis cells. The compound according to the invention was administered in the amount of 0.05 mg added in the emulsion containing the FIA.
# Eighteen days after this immunization, possible delayed hypersensitivity reactions to the antigen were sought by injecting by the intradermal route 0.01 mg of ovalbumin in the side of the animals, and 48 hours later, the reaction of the point of injection was observed. The diameter in millimeters of the reaction thus-caused was measured.
# [2] = tested on: Klebsiella pneumoniae; experiment: Anti-Klebsiella pneumoniae activity in the adult mouse; type: in vivo; conditions: for % Protection / Number of mice D + 3 (survivors) / Number of mice D + 5 (survivors) / Number of mice D + 10 (survivors): i.v.
# Experimental: An experimental procedure was studied by CHEDID L. et coll. in "Proc. Natl. Acad. Sci. USA," 1977, 74: 2089, which permits the stimulating effect or not to be observed of substances studied with regard to immune defenses according as they protect or not the mice to which they are injected, the mice being inoculated by a dose of Klebsiella pneumoniae which results in the death of almost all of the controls.
# (§2) The testing procedure is described in the article CHEDID L. et coll., Proc. Natl. Acad. Sci. USA, 74:2089.
# (§3) It was shown that a dose of about 10^4 Klebsiella pneumoniae, injected by the intramuscular route in mice, results in the gradual death of a considerable part, if not all, of the animals in the week following the inoculation. After 8 days, the survival of the animals was definitely achieved.
# The survival of groups of inoculated mice under the above conditions and treated by means of the products according to the invention was followed.
# For these tests, hybrid mice (C57B1/6×AKR) FI bred at the PASTEUR INSTITUTE, from strains derived from the CNRS breeding station at ORLEANS, were used.
# (§4) The infection by Klebsiella pneumoniae, a strain of the capsular 2, biotype d type, was done from a culture of 16 hours in a medium for pneumococci (No. 53515, PASTEUR INSTITUTE).
# (§5) Various treatment conditions and tests have been studied. Thus, the treatment was carried out either 24 hours before the test, or 1 hour after the latter. The influence of the infecting dose and the mode of administration has also been studied. In particular, the protective properties of the products have been determined in the case of an injection of Klebsiella pneumoniae by the intravenous route, which corresponds to a severe infection.
# (§6) In the majority of cases, the tests have been carried out on mice aged from 5 to 6 weeks. In one part of the tests, on the other hand, mice 7 days old were used, since the immune responses, in very young subjects are substantially different, and, on the whole, much more difficult to stimulate than those that are observed in adult subjects.
# (§7) The products are administered in apyrogenic physiological solution in the proportion of 0.2 ml for intravenous administration to adult mice and 0.05 ml for sub-cutaneous injection to mice 7 days old. The controls received the solution alone.
# (§8) The percentage protection indicated corresponds to the difference in percentages of survivors of the treated group with respect to the control group.
# [3] = tested on: bovine serum albumin (BSA); experiment: Adjuvant character in the aqueous phase (anti-BSA antibody titer, passive hemagglutination); type: in vivo, Swiss mice; conditions: 100 μg adjuvant s.c. with 0.5 mg BSA in isotonic saline; booster day 30; six days after booster; maximum serum dilution agglutinating
# Experimental: Groups of 8 Swiss mice aged two months received, by sub-cutaneous injection (SC), 0.5 mg of antigen constituted by bovine serum albumin (BSA) with 0.1 mg or without the tested substance in an isotonic saline solution. This high dose of antigen, because it is situated at the limit of the paralyzing dose with respect to the immunitary response, results, for this reason, in a weak or zero response to the antigen only in the controls: It constitutes therefore a severe criterion to establish the activity of an adjuvant substance. Thirty days later, the mice received, by the same administrative route, a booster containing 0.1 mg of the same antigen.
# The antibody level was determined, six days after the booster, by passive hemagglutination using sheep's red blood corpuscles treated with formalin and covered with the antigen studied according to the method described by A. A. HIRATA and M. W. BRANDISS (J. Immunol., 100, 641-648, 1968).
# The antibody titer, represented by the maximum serum dilution agglutinating a given amount of sheep corpuscles, reaches a maximum at the 36th day. The results obtained for various products according to the invention are shown in Table I. By way of comparison, the results obtained with MDP are indicated, on the one hand, and for PAP-MDP, on the other hand.
# [4] = tested on: ovalbumin; experiment: Adjuvant character in emulsion: serum antibodies specific for ovalbumin; type: in vivo, Hartley guinea pigs; conditions: emulsion with 1 mg ovalbumin, intradermal; product 50 μg in FIA; day 21; μg nitrogen precipitatable by antigen per ml serum
# Experimental: as §1
# Twenty-one days after the injection, the animals were bled. On the collected serum, the content of specific antibodies of the ovalbumin was measured by precipitation of the antibody-antigen complex in the equivalence zone. The amount of protein nitrogen contained in the precipitate was estimated by the Folin method. These values express the amount, in micrograms, of nitrogen precipitatable by the antigen, per milliliter of the serum.
# [5] = tested on: Klebsiella pneumoniae; experiment: Anti-Klebsiella pneumoniae activity in the 7 day old mouse; type: in vivo; conditions: for % Protection / Number of mice D + 3 (survivors) / Number of mice D + 5 (survivors) / Number of mice D + 10 (survivors): 100 μg
# Text: as §2, §3, §4, §5, §6, §7, §8
# The results reported in the following table represent the tests carried out in mice aged 7 days.
# [6] = tested on: suprarenalectomized mouse; experiment: Toxicity, intravenous injection in the suprarenalectomized mouse; type: in vivo
# Text: The toxicity of the products according to the invention were studied by parenteral administration in mice. It was observed that the toxic doses were of an order of magnitude very much higher than that of the doses at which these products manifest their activity.
# In addition, the activity/toxicity ratio is very favorable in the case of the pol-PAP-MDP, as appears when one considers the results of the tests reported below.
# [7] = tested on: Limulus amoebocyte lysate; experiment: Limulus test (endotoxic type activity, gel formation)
# Experimental: To show the absence of activity of the endotoxic type, products according to the invention were subjected to the Limulus test. For this purpose, 0.1 ml of the Limulus amoebocyte lysate preparation (marketed by the MALLINCKRODT Company, at Saint Louis, U.S.A.) was mixed with an equal volume of the tested product at various concentrations in solution in apyrogenic distilled water. The vessels used were also made apyrogenic by dry heating in the oven, at 180° C., for 2 hours.
# After incubating the mixture for 20 minutes at 37° C. in tubes, the formation of gel characteristic of the presence of endotoxin was estimated.
# A test is positive when the presence of a firm gel is observed which remains adherent to the bottom of the tube when the latter is inverted (technique described by Elin R. J. and Wolff S. M., J. Infect. Dis., 1973, 126: 349).
# [8] = tested on: Listeria monocytogenes; experiment: Anti-Listeria monocytogenes activity in the adult mouse; type: in vivo; conditions: Listeria i.v. 10^3, treatment D-1, i.v.
# Experimental: Under similar conditions to those of the tests of (4), the influence of the administration of the oligomer of p.aminophenyl-glycoside MDP was determined on the mortality of mice in which a dose of Listeria monocytogenes is administered, known for generating typically an infection of cellular type. As previously, the action of the product according to the invention was compared with that of Corynebacterium granulosum of which the anti-infectious properties are well known in this field. It was also determined, still by way of comparison, the action of Mur-NAc-L-Ala-D-isoGln (MDP).
# The treatment of the mice and the inoculation were carried out intravenously. The injected products were in solution or suspension in 0.2 ml of apyrogenic physiological solution. The controls only received the solution.
# The dose of Listeria administered was, in all the tests, 1.10^3 units.
# The test whose results are given below have been carried out varying the doses of the tested products and the interval of time separating the treatment of inoculation of the Listeria monocytogenes (either 1, or 7 days). The number of surviving mice at the fifth and the tenth day following the inoculation was followed, and the percentage protection determined as for the preceding tests.
# [9] = adult mouse, infection i.m. 1.5 × 10^4, treatment -24 h, 100 μg
# [10] = adult mouse, infection i.m. 1.5 × 10^4, treatment +1 h, 10 μg
# [11] = adult mouse, infection i.m. 1.5 × 10^4, treatment +1 h, 100 μg
# [12] = adult mouse, infection i.m. 1.5 × 10^4, treatment -24 h, 10 μg
# [13] = adult mouse, infection i.v. 1.5 × 10^3, treatment -24 h, 10 μg
# [14] = adult mouse, infection i.v. 1.5 × 10^3, treatment -24 h, 100 μg
# [15] = adult mouse, infection i.v. 1.5 × 10^5, treatment -24 h, 100 μg
# [16] = infection i.v. 2.5 × 10^2, treatment -24 h, s.c.
# [17] = infection s.c. 10^3, treatment -24, s.c.
substance,measurement,setting,value
"N^ε.N^ε' 'bis(N-acetyl-muramyl-L-alanyl-D-isoglutamine-L-lysine)-adipimidyl, dichlorohydrate [Adipimidyl-bis-MDP-Lys]",Cutaneous test diameter in mm,[1],17 mm
same,% Protection,[2]; [9],44%
same,Number of mice D + 3 (survivors),[2]; [9],27
same,Number of mice D + 5 (survivors),[2]; [9],23
same,Number of mice D + 10 (survivors),[2]; [9],22
same,Antibody titer,[3],200
same,Serum antibodies,[4],6000 µg/mL
polymer of β-D-p.aminophenyl-glycoside of Mur-NAc-L-Ala-D-isoGln [Pol (PAP-MDP)],anti-infectious activity with respect to Klebsiella pneumoniae (in words),"[2]; adult mouse, summary of Table 3",anti-infectious
same,% Protection,[2]; [10],50%
same,Number of mice D + 3 (survivors),[2]; [10],16
same,Number of mice D + 5 (survivors),[2]; [10],13
same,Number of mice D + 10 (survivors),[2]; [10],11
same,% Protection,[2]; [11],81%
same,Number of mice D + 3 (survivors),[2]; [11],16
same,Number of mice D + 5 (survivors),[2]; [11],16
same,Number of mice D + 10 (survivors),[2]; [11],16
same,% Protection,[2]; [12],58%
same,Number of mice D + 3 (survivors),[2]; [12],24
same,Number of mice D + 5 (survivors),[2]; [12],21
same,Number of mice D + 10 (survivors),[2]; [12],19
same,% Protection,[2]; [9],72%
same,Number of mice D + 3 (survivors),[2]; [9],24
same,Number of mice D + 5 (survivors),[2]; [9],24
same,Number of mice D + 10 (survivors),[2]; [9],22
same,% Protection,[2]; [13],16%
same,Number of mice D + 3 (survivors),[2]; [13],22
same,Number of mice D + 5 (survivors),[2]; [13],17
same,Number of mice D + 10 (survivors),[2]; [13],9
same,% Protection,[2]; [14],75%
same,Number of mice D + 3 (survivors),[2]; [14],15
same,Number of mice D + 5 (survivors),[2]; [14],14
same,Number of mice D + 10 (survivors),[2]; [14],14
same,% Protection,[2]; [15],12%
same,Number of mice D + 3 (survivors),[2]; [15],12
same,Number of mice D + 5 (survivors),[2]; [15],4
same,Number of mice D + 10 (survivors),[2]; [15],3
same,active dose (anti-infectious activity),[2]; as stated in the Limulus discussion,10 μg per mouse
same,% Protection,[5]; [16],41%
same,Number of mice D + 3 (survivors),[5]; [16],14
same,Number of mice D + 5 (survivors),[5]; [16],10
same,Number of mice D + 10 (survivors),[5]; [16],9
same,% Protection,[5]; [17],34%
same,Number of mice D + 3 (survivors),[5]; [17],22
same,Number of mice D + 5 (survivors),[5]; [17],19
same,Number of mice D + 10 (survivors),[5]; [17],19
same,anti-infectious activity with respect to Klebsiella pneumoniae (in words),[5]; summary of Table 4,notable anti-infectious activity
same,lethal dose 50,[6],higher than 100 μg
same,times less toxic than endotoxin extracted from E. coli,[6],5000 times
same,times less active than the LPS on Limulus test,[7],"500,000 times"
same,concentration leading to a positive response (Limulus test),"[7]; 20 minutes at 37° C., firm gel",~15000 ng/mL
same,Antibody titer,[3],50
same,% Protection,[8]; 10 μg,29%
same,Number of mice D + 5 (survivors),[8]; 10 μg,10
same,Number of mice D + 10 (survivors),[8]; 10 μg,6
same,% Protection,[8]; 100 μg,71%
same,Number of mice D + 5 (survivors),[8]; 100 μg,23
same,Number of mice D + 10 (survivors),[8]; 100 μg,19
